# Data: US20250360092A1, “Carotenoid-fortified Yogurt and Methods For Preparing The Same” (Maravilla, LLC, priority 2024, published 2025)
# Assay type: physicochemical
# Conditions: start of the thirty-five-day storage at 4° C.
# Experimental: Lutein and Zeaxanthin Stability Over Shelf Life. […] The stability may be influenced by the way lutein was added to the yogurt. When lutein is introduced post-fermentation via stirring, it tends to degrade in a concentration-dependent manner. […] This phenomenon may be attributed to the consumption of oxygen in milk by Lactobacillus bulgaricus during fermentation. […] The samplings were weighted into […] falcon tubes and 4 milliliters of tetrahydrofuran containing 0.1% was added to each sampling. The mixtures were vortexed for 30 seconds and centrifuged at 3500 grams for 5 minute at 20° C. […] The three extracts were then pooled and dried in the vacuum centrifuge at less than 30° C. and the dry residue was resuspended in 10 milliliters of acetone and read in the spectrophotometer. […] Carotenoid profiling, relative purity and quantification were carried out in a HPLC 1260 Infinity Series (Agilent Technologies, Santa Clara, CA, USA), equipped with a diode array detector, quaternary pump, degasser, thermostatically-controlled column compartment, and a thermostatically-controlled autosampler. […] For carotenoid quantification in human serum, 100 microliters of a sampling were injected. […] Differences in serum carotenoid concentration at each time point were assessed by paired t-test.
row,starting concentration in the lutein-fortified yogurt sample [mg/100 g],Compound
1,0.71±0.02,"CC1=C(/C=C/C(C)=C/C=C/C(C)=C/C=C/C=C(C)/C=C/C=C(C)/C=C/C2=C(C)C[C@@H](O)CC2(C)C)C(C)(C)C[C@H](O)C1 [Zeaxanthin, zeaxanthin]"
2,14.60±0.41,"CC1=C[C@H](O)CC(C)(C)[C@H]1/C=C/C(C)=C/C=C/C(C)=C/C=C/C=C(C)/C=C/C=C(C)/C=C/C1=C(C)C[C@@H](O)CC1(C)C [Lutein, lutein]"
